The test has as its system Plasmodium berghei. Put plainly: Luciferase/luciferin-expressing antifolate-resistant parasites were used to infect a culture of HepG2 cells that were pre-incubated with compounds. Infected hepatocytes emit light due to the luciferase reaction. Assay results are presented as the percent inhibition of light emission compared to control. […]. The test is classed as functional. The following applies: sporozoite; for IC90: read-out: LUCIFERASE INFECTION ASSAY - IC90.

Setting [1] is: read-out: LUCIFERASE INFECTION ASSAY - IC50.

A word on the IC50: it is the point on the concentration scale where inhibition reaches its midpoint. The IC90 is the point of the concentration-response curve where the effect stands at 90%.

As for `CN(C)c1ccc(Nc2cc(-c3cccc4ccccc34)ncn2)cc1`, the IC90 is 6.64 µM. Also, the IC50 (HEPG2TOX_HILL_SLOPE 1.74, HEPG2TOX_R_SQUARED 0.777, PBLUC_HILL_SLOPE 1.75, PBLUC_R_SQUARED 0.668, read-out: LUCIFERASE INFECTION ASSAY - IC50) was 1.9 µM.
Take `CC(=O)Nc1nc(C(=O)Nc2ccc(Nc3ccccc3)cc2)cs1`: the IC90 was > 10 µM. For the same compound, the IC50 (HEPG2TOX_HILL_SLOPE 2.43, HEPG2TOX_R_SQUARED 0.519, PBLUC_HILL_SLOPE 2.7, PBLUC_R_SQUARED 0.347, read-out: LUCIFERASE INFECTION ASSAY - IC50) came to 4.68 µM.
`COc1cc(NC(=O)CN2CC=C(c3c[nH]c4ccccc34)CC2)cc(OC)c1OC`: the IC90 is > 10 µM. Under setting [1], the IC50 was > 10 µM.
As for `N#Cc1ccc(OCc2nc3ccccc3n2C(F)F)cc1`, the IC90 was determined as 4.42 µM. The concentration for half-maximal inhibition (IC50) (HEPG2TOX_HILL_SLOPE 1.97, HEPG2TOX_R_SQUARED 0.844, PBLUC_HILL_SLOPE 169, PBLUC_R_SQUARED 0.414, read-out: LUCIFERASE INFECTION ASSAY - IC50) came out at 4.36 µM.
For the compound `Cc1ccc(-c2c(C)sc3[nH]c(CN(C)CC(=O)Nc4cccc(C)c4C)nc(=O)c23)cc1`, the IC90 is > 10 µM. Also, the IC50 under setting [1] is > 10 µM.
Consider `CCNc1nnc(SC(C)C(=O)Nc2ccc(OC(F)F)cc2)s1` (stereo not drawn), for which the 90% effect concentration (IC90) was > 10 µM. Besides, the IC50 under setting [1] is > 10 µM.
Regarding `COc1ccc(OC)c(CCNc2nc3cnc(-c4cncnc4)cc3n2C)c1`, the IC90 is > 10 µM. In addition, the IC50 (HEPG2TOX_HILL_SLOPE 2.17, HEPG2TOX_R_SQUARED 0.775, PBLUC_HILL_SLOPE 2.72, PBLUC_R_SQUARED 0.417, read-out: LUCIFERASE INFECTION ASSAY - IC50) was 4.95 µM.
`O=C(CN(Cc1ccccc1Cl)S(=O)(=O)/C=C/c1ccccc1)Nc1ccc(F)cc1Cl`: the concentration for an effect of 90% (IC90) was > 10 µM. Also, the IC50 under setting [1] is > 10 µM.
`CNC(=O)CN(c1cc(OCCOC)c(Cl)cc1Cl)S(=O)(=O)c1ccc(OC)cc1`: the IC90 stood at 0.87 µM. Besides, where the note is “HEPG2TOX_HILL_SLOPE 3.52, HEPG2TOX_R_SQUARED 0.986, PBLUC_HILL_SLOPE 18.4, PBLUC_R_SQUARED 0.669, read-out: LUCIFERASE INFECTION ASSAY - IC50”, the IC50 stood at 0.771 µM.
Consider `NC(=O)c1ccc(-c2cc(-c3cccc(C(F)(F)F)c3)cnc2N)cc1`, for which the concentration for an effect of 90% (IC90) amounted to 5.02 µM. The IC50 (PBLUC_HILL_SLOPE 80.6, PBLUC_R_SQUARED 0.104, read-out: LUCIFERASE INFECTION ASSAY - IC50) was 4.88 µM.
Turning to `N#Cc1ccsc1NC(=O)c1ccc(Cl)c([N+](=O)[O-])c1`, the IC90 is > 10 µM. Also, the IC50 under setting [1] was > 10 µM.
Take `COc1cc(-c2ccc3ncc(-c4cccc(OC(F)(F)F)c4)n3n2)cc(OC)c1OC`: the IC90 stood at 3.72 µM. Further, the IC50 (PBLUC_HILL_SLOPE 15.5, PBLUC_R_SQUARED 0.302, read-out: LUCIFERASE INFECTION ASSAY - IC50) came out at 3.23 µM.
On to `CCOC(=O)c1sc(N(Cc2ccccc2)C(=O)C2CC2C)nc1C` (stereo not drawn), for which the concentration for an effect of 90% (IC90) is > 10 µM. In addition, the 50% inhibitory concentration (IC50) (PBLUC_HILL_SLOPE 0.389, PBLUC_R_SQUARED 0.128, read-out: LUCIFERASE INFECTION ASSAY - IC50) was found to be 1.6 µM.
`Cn1nc(SCC(=O)NN)c(=O)n(C)c1=O`: the 90% effect concentration (IC90) came to 3.54 µM. The IC50 (PBLUC_HILL_SLOPE 9.87, PBLUC_R_SQUARED 0.424, read-out: LUCIFERASE INFECTION ASSAY - IC50) was determined as 2.84 µM.
`Cc1cc(NC(=O)C(C)(C)C)sc1C(=O)Nc1ccccc1O`: the 90% effect concentration (IC90) was determined as 0.526 µM.
In the case of `O=C(Cc1csc(N2CCCC2=O)n1)Nc1nc(-c2ccc3c(c2)CCCC3)cs1`, the IC90 is > 10 µM. Further, under setting [1], the IC50 was > 10 µM.
For `CCOc1ccc(S(=O)(=O)Nc2ccccc2C(=O)Nc2nnc[nH]2)cc1`, the concentration for an effect of 90% (IC90) is > 10 µM. The IC50 under setting [1] is > 10 µM.
In the case of `Cc1cccc(CN2CCC3(CC2)C(=O)N(Cc2ccccn2)C(=O)N3CCc2ccccc2)c1`, the IC90 was > 7.04 µM. Moreover, the half-maximal inhibitory concentration (IC50) (HEPG2TOX_HILL_SLOPE 1.55, HEPG2TOX_R_SQUARED 0.857, PBLUC_HILL_SLOPE 4.1, PBLUC_R_SQUARED 0.48, read-out: LUCIFERASE INFECTION ASSAY - IC50) turned out to be 5.65 µM.
Regarding `O=C(O)c1cnc2cc(Cl)cc(Cl)c2c1O`, the IC90 was > 12.8 µM. The half-inhibitory concentration (IC50) (FFLUC_HILL_SLOPE 2.26, FFLUC_R_SQUARED 0.266, PBLUC_HILL_SLOPE 1.77, PBLUC_R_SQUARED 0.584, read-out: LUCIFERASE INFECTION ASSAY - IC50) came to 8.35 µM.
Take `COc1ccc(CC2CCC(=NOC(=O)c3ccc(C(C)(C)C)cc3)CC2)cc1` (stereo not drawn): the concentration for an effect of 90% (IC90) is > 8.39 µM. Further, under “FFLUC_HILL_SLOPE 16.8, FFLUC_R_SQUARED 0.295, read-out: LUCIFERASE INFECTION ASSAY - IC50”, the IC50 is > 8.39 µM.
Consider `O=C(NC1CCCCC1)c1ccccc1-n1ncc(Cl)c(Cl)c1=O`, for which the IC90 worked out at 3.79 µM. Moreover, the half-maximal inhibitory concentration (IC50) (FFLUC_HILL_SLOPE 2.05, FFLUC_R_SQUARED 0.721, HEPG2TOX_HILL_SLOPE 15.4, HEPG2TOX_R_SQUARED 0.582, PBLUC_HILL_SLOPE 17.3, PBLUC_R_SQUARED 0.758, read-out: LUCIFERASE INFECTION ASSAY - IC50) stood at 3.34 µM.
`CCNC(=O)C1CCCN(Cc2ccc3ccccc3c2Br)CC1` (stereo not drawn): the IC90 came to 3.91 µM. Moreover, the IC50 (PBLUC_HILL_SLOPE 11.4, PBLUC_R_SQUARED 0.606, read-out: LUCIFERASE INFECTION ASSAY - IC50) worked out at 3.23 µM.
As to `COc1ccc(C2=NNC(=NCc3ccc4c(c3)OCO4)SC2)cc1F`, the IC90 was > 10 µM. In addition, the IC50 (FFLUC_HILL_SLOPE 1.69, FFLUC_R_SQUARED 0.437, PBLUC_HILL_SLOPE 4.83, PBLUC_R_SQUARED 0.0332, read-out: LUCIFERASE INFECTION ASSAY - IC50) was 8.77 µM.
With `CCCCC(CC)Cn1c(SCc2nc(N)nc(N)n2)nnc1-c1ccc(Cl)cc1` (stereo not drawn), the concentration for an effect of 90% (IC90) is > 10 µM. Also, the half-maximal inhibitory concentration (IC50) under setting [1] was > 10 µM.
On to `Cc1ccc(N2C(=O)/C(=C\Nc3cc(Cl)ccc3[N+](=O)[O-])c3ccccc3C2=O)c(C)c1`, for which the IC90 was > 10 µM. Also, the concentration for half-maximal inhibition (IC50) (FFLUC_HILL_SLOPE 12.2, FFLUC_R_SQUARED 0.8, read-out: LUCIFERASE INFECTION ASSAY - IC50) is > 10 µM.
For the compound `CNc1cc(CSCc2ccc(Cl)cc2)nc(-c2ccccc2)n1`, the IC90 was > 9.27 µM. Moreover, the half-maximal inhibitory concentration (IC50) under setting [1] is > 9.27 µM.
In the case of `CC(C)C(CNc1nc(-c2ccsc2)nc2ccccc12)N1CCN(C)CC1` (stereo not drawn), the IC90 was > 10 µM. Further, the IC50 (HEPG2TOX_HILL_SLOPE 10.4, HEPG2TOX_R_SQUARED 0.591, PBLUC_HILL_SLOPE 1.6, PBLUC_R_SQUARED 0.533, read-out: LUCIFERASE INFECTION ASSAY - IC50) turned out to be 2.79 µM.
For `COc1ccc(-c2cc3[nH]c(NCc4ccccc4)nc3cn2)cc1OC`, the IC90 was found to be 5.34 µM. For the same compound, the IC50 (HEPG2TOX_HILL_SLOPE 12.7, HEPG2TOX_R_SQUARED 0.819, PBLUC_HILL_SLOPE 80.4, PBLUC_R_SQUARED 0.69, read-out: LUCIFERASE INFECTION ASSAY - IC50) came to 5.2 µM.
`C=CCN(C(=O)c1[nH]c(C)c(C(C)=O)c1C)c1nc2c(s1)CCCC2`: the IC90 turned out to be 6.45 µM. Also, the concentration for half-maximal inhibition (IC50) (PBLUC_HILL_SLOPE 0.713, PBLUC_R_SQUARED 0.94, read-out: LUCIFERASE INFECTION ASSAY - IC50) is 0.296 µM.
With `CCOC(=O)C1CCCN(CC(=O)N2N=C3/C(=C/c4ccc(Cl)cc4)CCCC3C2c2ccc(Cl)cc2)C1` (stereo not drawn), the IC90 is > 10 µM. For the same compound, the half-inhibitory concentration (IC50) (PBLUC_HILL_SLOPE 9.1, PBLUC_R_SQUARED 0.32, read-out: LUCIFERASE INFECTION ASSAY - IC50) was found to be 7.93 µM.
`O=C1C(=C2NC(c3cccc(C(F)(F)F)c3)=CS2)Sc2ccccc21`: the IC90 is 3.25 µM. Also, the IC50 (FFLUC_HILL_SLOPE 302, FFLUC_R_SQUARED 0.711, PBLUC_HILL_SLOPE 16.1, PBLUC_R_SQUARED 0.464, read-out: LUCIFERASE INFECTION ASSAY - IC50) is 2.83 µM.
In the case of `CNc1cc(Nc2cc(C)c(Oc3cccc(C(C)(C)C)c3)cc2C)ncn1`, the 90% effect concentration (IC90) is 8.49 µM. Also, for the setting “FFLUC_HILL_SLOPE 11.3, FFLUC_R_SQUARED 0.0353, HEPG2TOX_HILL_SLOPE 16.8, HEPG2TOX_R_SQUARED 0.912, PBLUC_HILL_SLOPE 9.72, PBLUC_R_SQUARED 0.605, read-out: LUCIFERASE INFECTION ASSAY - IC50”, the concentration for half-maximal inhibition (IC50) is 6.77 µM.
For the compound `NNc1nc(C(F)(F)F)nc2c1cnn2Cc1ccccc1`, the IC90 was > 10 µM. Also, the IC50 (FFLUC_HILL_SLOPE 3.09, FFLUC_R_SQUARED 0.0505, read-out: LUCIFERASE INFECTION ASSAY - IC50) was > 10 µM.
As for `O=C(COc1ccc(Oc2ccccc2)cc1)NCc1cn2ccccc2n1`, the IC90 amounted to 1.77 µM. The 50% inhibitory concentration (IC50) (HEPG2TOX_HILL_SLOPE 0.752, HEPG2TOX_R_SQUARED 0.901, PBLUC_HILL_SLOPE 2.64, PBLUC_R_SQUARED 0.419, read-out: LUCIFERASE INFECTION ASSAY - IC50) came out at 0.772 µM.
Take `O=[N+]([O-])c1ccc(SCCOS(=O)(=O)c2cccc(C(F)(F)F)c2)c2nonc12`: the IC90 is > 7.34 µM. Also, under setting [1], the IC50 was > 7.34 µM.
Turning to `Cc1cc(=O)nc(N/N=C/c2c(C)nn(-c3ccccc3)c2Oc2ccc(F)cc2)[nH]1`, the IC90 was > 10 µM. For the same compound, the half-inhibitory concentration (IC50) (PBLUC_HILL_SLOPE 3.64, PBLUC_R_SQUARED 0.538, read-out: LUCIFERASE INFECTION ASSAY - IC50) was 6.15 µM.
Turning to `COc1ccc(C2=NOC(C(N)=O)C2)cc1OC` (stereo not drawn), the concentration for an effect of 90% (IC90) was determined as 9.25 µM. For the same compound, the concentration for half-maximal inhibition (IC50) (PBLUC_HILL_SLOPE 2.3, PBLUC_R_SQUARED 0.443, read-out: LUCIFERASE INFECTION ASSAY - IC50) came to 3.55 µM.

For the origin of these results see ChEMBL document CHEMBL4483862, “Open-source discovery of chemical leads for next-generation chemoprotective antimalarials” (2018).
